One data set deals with platelet. Conditions: reported in literature; cited from earlier work.
In data set [1] the test system is adenocarcinoma gastric cell line (AGS). The data set can be described thus: Cytotoxicity / cell viability, MTT assay. It is filed as cell-based. The settings on record: human, 24 h. As for the experimental part: The cytotoxicity of the nanoparticle formulation was studied using adenocarcinoma gastric cell line (AGS). Cells were grown in F-12K media supplemented with 20% fetal bovine serum at 5% CO2 humidified atmosphere. Cells were harvested using trypsin and 1×10^4 cells with 100 μL of serum free media per well was plated in 96-well plate and incubated for 24 and 48 h. At end of time interval, media was removed and known concentrations of samples 1×PBS, Navi, GADA/Navi, GADA/Navi/Bcl2 siRNA, GADA/Bcl2 siRNA, Navi/Bcl2 siRNA, (Navi 10, 20, 30, 40, and 50 μM and Bcl2 siRNA 20, 40, 60, 80, and 100 nM) and GADA were added to the cells. The plate was then incubated for 24 h and 48 h. Cell viability was measured using MTT cell proliferation assay kit according to manufacturer's instruction. The absorbance of MTT was measured by using a SYNERGY H1 microplate reader (BioTek) at a wavelength of 570 nm and subtracted the background absorbance recorded at 630 nm.
The mitochondrial enzymes are responsible for reducing the tetrazolium salt (MTT) into purple formazan crystals which is indicator of cell viability/cytotoxicity. The therapeutic effect of formulations was carried out by quantifying the cell viability using MTT assay. […]
A general note: Tetrazolium dyes change colour on reduction, which living cells bring about.

For `CC1(C)CCC(c2ccc(Cl)cc2)=C(CN2CCN(c3ccc(C(=O)NS(=O)(=O)c4ccc(N[C@H](CCN5CCOCC5)CSc5ccccc5)c(S(=O)(=O)C(F)(F)F)c4)cc3)CC2)C1` [Navitoclax], the “Platelet apoptosis, thrombocytopenia” value in the data set with platelet is listed as “induced platelet apoptosis, resulting in severe thrombocytopenia”. The Cell viability in data set [1] is reported as 65.2±5.32%.

The values are drawn from patent US20240415852A1, “ORAL CODELIVERY OF NAVITOCLAX AND Bcl2 siRNA TREATING GASTIC CANCER” (Board of Regents, The University of Texas System, priority 2023, published 2024).
